Results on 64 molecules are retold here after a melting point compilation (Tetko et al.; mined from patent text by program, amines drawn as free bases though some values may be those of a salt).

SMILES strings stand for the structures.

What is called melting point is the temperature, or range, at which the solid turns liquid. Consider `O=C(O)c1ccc2[nH]c3c(c2c1)CC(N1C(=O)c2ccccc2C1=O)CC3` (centres undefined), for which the melting point lay in the range of 345 to 348 °C.

On to `Cc1ccn(-c2nc3ccccc3c(=O)[nH]2)n1`, for which the melting point was in the range of 162 to 165 °C.

In turn, `COc1ccc(C=Nc2ccc(SC)cc2)cc1` came in with a melting point of 183 to 184 °C.

As to `COc1ccc2cc(C(=O)CNC(=O)c3cn(Cc4ccccc4)c4ccccc34)ccc2c1`, the melting point was in the range of 177 to 179 °C.

`NS(=O)(=O)c1cc2cc[nH]c(=O)c2o1` registered a melting point of 290 to 291 °C.

The molecule `CNc1c(F)ccc(-n2cc(C(=O)O)c(=O)c3cc(F)c(NC)c(Cl)c32)c1F` registered a melting point of 245 to 248 °C.

`O=C1CC2(CCCC2)c2ccc(Cl)cc21`: the melting point was determined as 54 °C.

Take `COc1ccnc(CSc2nc3c(C(F)(F)F)cccc3[nH]2)c1`: the melting point is 146 °C.

With `Oc1ncc(-c2ccccc2Cl)cn1`, the melting point was 232 to 233 °C.

In the case of `O=[N+]([O-])c1ccc(Oc2ccc(C(F)(F)F)cc2Cl)cc1[N+](=O)[O-]`, the melting point was 80 to 81 °C.

As to `CN[C@@H]1Cc2cccc3[nH]c(=S)n(c23)C1`, the melting point lay within 210 to 213 °C.

`CCOC(=O)CCn1c(=O)c(=O)[nH]c2cc(C(F)(F)F)c(N)cc21`: the melting point is 262 to 263 °C.

In turn, `O=C1CCC(c2cccc(O)c2)N1Cc1ccncc1` (centres undefined) registered a melting point of 148 to 150 °C.

In the case of `CC(C)(C)Sc1c(CC(C)(C)C(=O)O)n(Cc2ccc(Cl)cc2)c2ccc(OCc3cscn3)cc12`, the melting point fell in the range of 194 to 195 °C.

`CSCC(C)(C)NC(=O)c1c(I)cccc1C(=O)Nc1ccc(-c2nnnn2C2CC2)cc1C` showed a melting point of 131 to 132 °C.

In turn, `COC(=O)c1cc(OCCCCCCCCCCCCOc2ccccc2)ccc1O` returned a melting point of 61 to 64 °C.

Take `O=C(Nc1cccc2c1C(=O)N(CCC(=O)N1CCN(c3ccncc3)CC1)C2=O)c1ccc(Cl)s1`: the melting point was 167 °C.

In the case of `COC(=O)C(c1ccccc1)N1CCC(c2ccc(NC(=O)c3ccccc3-c3ccc(C(F)(F)F)cc3)cc2)CC1` (centres undefined), the melting point amounted to 138 °C.

Consider `O=C1c2nccnc2C(O)N1c1ccc2ccc(Cl)nc2n1` (centres undefined), for which the melting point is 270 °C.

`CC(C)CC(=O)Nc1cccc(-c2ccnc3c(-c4cccc(CN(C)C)c4)cnn23)c1` came in with a melting point of 179 to 182 °C.

As for `COc1ccc([N+](=O)[O-])c(NC(C)=O)c1`, the melting point came to 129 °C.

The molecule `O=C1N(C(c2ccccc2)c2ccccc2)c2ccc(F)cc2C12COc1cc3c(cc12)CCO3` (centres undefined) showed a melting point of 228 to 229 °C.

As to `CCNC(=O)CN1C(=O)C(NC(=O)OCc2ccccc2)N=C(c2ccccc2)c2ccccc21` (centres undefined), the melting point came to 149 °C.

Take `CC(C)(C)CC(C)(C)n1scc(Cl)c1=O`: the melting point is 137 to 140 °C.

As to `COC[C@@H]1Cc2ccccc2N1S(=O)(=O)c1ccc2c(c1)C(=O)C1=NCC(C)(C)CN12`, the melting point fell in the range of 173 to 175 °C.

Consider `COc1cc(-c2ccccc2)on1`, for which the melting point was 69 to 71 °C.

In the case of `ClC(Cl)(Cl)c1nc(NCc2ccccc2)nc(C(Cl)(Cl)Cl)n1`, the melting point lay in the range of 96.5 to 97 °C.

`O=C1CCC(N2Cc3c(CNC(=O)Nc4ccccc4)cccc3C2=O)C(=O)N1` (centres undefined) yielded a melting point of 328 to 330 °C.

The molecule `CS(=O)c1csc(C(=O)C2C(=O)N(C(N)=O)c3ccc(Cl)cc32)c1` (centres undefined) came in with a melting point of 204 to 206 °C.

In the case of `N#Cc1ccc(-c2cn3cc(Br)ccc3n2)cc1`, the melting point lay within 218 to 219 °C.

The molecule `CCOC(=O)c1oc2cccc(OC)c2c1C` returned a melting point of 67 to 69 °C.

Regarding `O=C(O)CCCc1cc2cc(Cl)ccc2n1S(=O)(=O)c1ccc2ncsc2c1`, the melting point lay within 74 to 80 °C.

Consider `CCCCCCCCCCCCCCCC(=O)OCCCN(C)C`, for which the melting point fell in the range of 49 to 50 °C.

In turn, `CCOC(=O)Cc1cccc2c(-c3ccc([N+](=O)[O-])cc3)nccc12` yielded a melting point of 89.5 to 90.5 °C.

`CC(CO)(CO)NS(=O)(=O)c1cccc(NC(=O)c2cnn3c(C(F)F)cc(-c4ccc(C(F)(F)F)cc4)nc23)c1` registered a melting point of 246 °C.

Molecule `Cc1c(-c2ccncc2)[nH]c2c1C(=O)CC(C)C2` (centres undefined) came in with a melting point of 247 to 248 °C.

On to `CC(C)n1nc(-c2sc(NC(=O)Cc3ccccc3)nc2-c2ccccc2)ccc1=O`, for which the melting point fell in the range of 250 to 252 °C.

As for `CC(=O)Nc1ccc(C(F)(F)F)cc1-c1ccc(OC(C)C(O)CCc2cccnc2)cc1` (centres undefined), the melting point lay in the range of 44 to 47 °C.

In the case of `CCOc1ccnc(F)c1`, the melting point fell in the range of 35 to 36 °C.

The molecule `CCOC(=O)C1=Cc2cccc(/C=C/C(=O)O)c2OCC1` registered a melting point of 166 to 168 °C.

`CCCCCCCCCCCCCCOc1c(CBr)cccc1CBr` came in with a melting point of 59.3 to 59.8 °C.

Consider `Cc1cc(N2CCNCC2)ccn1`, for which the melting point fell in the range of 93 to 94 °C.

Molecule `COC(=O)CCCCCCCCCCCO` showed a melting point of 33.5 to 35 °C.

As to `CC(=O)NCc1ccc(C(C)(C)NC(=O)OCc2ccccc2)cc1`, the melting point was 132 to 135 °C.

`Cc1cc(C(N)=O)ncc1C(c1c(F)ccc(F)c1F)S(=O)(=O)CC1CC(F)(F)C1` (centres undefined) gave a melting point of 205 to 207 °C.

On to `CSCON=C(C(=O)O)c1nccc(NC=O)n1`, for which the melting point lay within 80 to 85 °C.

With `CCCc1ccc(NC(=O)c2ccccc2C(c2ccc(O)cc2)c2ccc(O)cc2)cc1`, the melting point lay within 218 to 219 °C.

Molecule `O=C1NC(=O)c2c1c(-c1ccccc1Cl)cc1c2c2cc(O)ccc2n1CCS(=O)(=O)c1ncn[nH]1` registered a melting point of 301 to 304 °C.

Regarding `CCN(CCOC)C(=O)c1cc(-c2ccccc2)c(=O)[nH]c1-c1c(Cl)cccc1C#N`, the melting point lay in the range of 184 to 186 °C.

In turn, `COc1ccc2cc(N(C(C)=O)c3ccc(O)cc3)ccc2c1` yielded a melting point of 187 to 188 °C.

`COC(=O)c1ccc(CN(OC)C(=O)C=C(O)C(=O)O)cc1`: the melting point was 123 to 125 °C.

Regarding `CS(=O)(=O)Cc1ccc(C(=NN)c2ccc(Cl)cc2)cc1`, the melting point is 52 to 54 °C.

With `CN(c1ccc(Cl)cc1)c1ncccc1[N+](=O)[O-]`, the melting point was in the range of 107 to 110 °C.

The molecule `NCCOC(=C1C2CC3CC(C2)CC1C3)c1cccc(O)c1` returned a melting point of 55 °C.

The molecule `O=C(Nc1cccc(S(=O)(=O)Nc2ccccc2)c1)c1cnn2c(C(F)(F)F)cc(-c3ccc(C(F)(F)F)cc3)nc12` yielded a melting point of 258 °C.

For `O=C(NN1CCOCC1)OCCOc1ccc(OCCOC(=O)NN2CCOCC2)cc1`, the melting point lay in the range of 219 to 221 °C.

As for `C=C(C)Cn1c(=O)n(C)c(=O)c2cc(Cc3ccc(OC)cc3)sc21`, the melting point worked out at 111 °C.

`CCCCCCCCC(=O)N(C)Cc1ccc(C(=O)O)cc1` gave a melting point of 79.5 to 81 °C.

For the molecule `On1c(-c2ccccc2)csc1=S`, the melting point lay within 149 to 151 °C.

`CC(C)(C)OC(=O)NC1Cc2cccc(c2)CC(C(=O)O)NC(=O)CNC1=O` (centres undefined) had a melting point of more than 250 °C.

`CC(c1cc(F)ccc1Oc1nc2ccc(-n3cc(-c4ccccc4)nn3)cc2cc1Cc1ccccc1)n1ccnc1` (centres undefined): the melting point lay within 118 to 120 °C.

As to `COc1ccc(I)cc1C=O`, the melting point was 140 to 142 °C.

As to `O=C1OCC2Cc3cccc(F)c3OC12` (centres undefined), the melting point was 75.5 to 77.5 °C.

In turn, `O=CNc1cccc2ccc(O)cc12` gave a melting point of 203 to 205 °C.
